Data reported in ChEMBL document CHEMBL4420076, “Amylin and calcitonin receptor agonist” (2017).
Numbered stars: 1 amine (or outer) side, 2 acyl side, 3 side chain; on linkers, the order of the positions; unused ones are H or OH. Peptide text beside a SMILES is read from it. * marks the point of attachment. C18 diacid = O=C(O)CCCCCCCCCCCCCCCCC(=O)*; γGlu = O=C(O)[C@H](CCC(=O)[*:2])N[*:1]

Key:
[1] = Solubility in 100 mM bistrispropane buffer at pH 6.0 incubated for 18 hrs by UPLC analysis; type: physicochemical
[2] = Solubility in 100 mM bistrispropane buffer at pH 8.0 incubated for 18 hrs by UPLC analysis; type: physicochemical
Calcitonin receptor [3] = target: T1, Calcitonin receptor (Homo sapiens, UniProt P30988); experiment: Agonist activity at human calcitonin receptor expressed in BHK570 cells assessed as increase in intracellular cAMP concentration incubated for 3 hrs in absence of albumin by CRE luciferase reporter gene assay; type: functional, cell-based
T1 sequence (P30988 whole entry): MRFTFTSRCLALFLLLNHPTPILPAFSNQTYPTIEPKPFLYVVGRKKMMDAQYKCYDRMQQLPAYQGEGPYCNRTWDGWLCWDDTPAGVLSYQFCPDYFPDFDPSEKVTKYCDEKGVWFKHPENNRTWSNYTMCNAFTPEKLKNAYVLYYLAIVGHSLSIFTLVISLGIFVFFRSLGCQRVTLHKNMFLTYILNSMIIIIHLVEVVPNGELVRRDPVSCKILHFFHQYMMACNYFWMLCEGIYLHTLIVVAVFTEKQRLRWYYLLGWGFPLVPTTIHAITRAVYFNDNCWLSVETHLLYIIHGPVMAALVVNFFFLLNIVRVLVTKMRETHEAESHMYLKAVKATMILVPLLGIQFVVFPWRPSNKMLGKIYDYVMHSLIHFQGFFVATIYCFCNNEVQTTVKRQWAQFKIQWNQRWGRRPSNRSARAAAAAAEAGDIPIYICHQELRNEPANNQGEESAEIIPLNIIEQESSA

[4] = target: T2, Amylin receptor AMY3; CALCR/RAMP3 (Homo sapiens, UniProt O60896+P30988); experiment: Agonist activity at human amylin receptor expressed in BHK570 cells co-expressing RAMP3 assessed as increase in intracellular cAMP concentration incubated for 3 hrs in presence of 10% FBS by CRE luciferase reporter gene assay; type: functional, cell-based
T2 sequence (P30988 whole entry): T1 sequence (P30988 whole entry)
T2 sequence (O60896 whole entry): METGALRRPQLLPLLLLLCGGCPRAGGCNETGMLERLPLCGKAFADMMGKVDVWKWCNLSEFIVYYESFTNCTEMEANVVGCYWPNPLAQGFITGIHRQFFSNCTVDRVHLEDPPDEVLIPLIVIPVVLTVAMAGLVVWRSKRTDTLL

[5] = Solubility in 100 mM glycylglycine buffer at pH 3.0 incubated for 18 hrs by UPLC analysis; type: physicochemical
[6] = Solubility in 100 mM bistrispropane buffer at pH 6.5 incubated for 18 hrs by UPLC analysis; type: physicochemical
[7] = target: T2, Amylin receptor AMY3; CALCR/RAMP3; experiment: Displacement of [125I]-labeled rat amylin from human amylin receptor expressed in BHK tkts13 whole cells co-expressing RAMP3 incubated for 60 mins by scintillation proximity assay; type: cell-based
[8] = Solubility in 100 mM bistrispropane buffer at pH 7.0 incubated for 18 hrs by UPLC analysis; type: physicochemical
[9] = Solubility in 100 mM bistrispropane buffer at pH 7.5 incubated for 18 hrs by UPLC analysis; type: physicochemical
Calcitonin receptor [10] = target: T1, Calcitonin receptor; experiment: Agonist activity at human calcitonin receptor expressed in BHK570 cells assessed as increase in intracellular cAMP concentration incubated for 3 hrs in presence of 10% FBS by CRE luciferase reporter gene assay; type: functional, cell-based
[11] = Solubility in 100 mM glycylglycine buffer at pH 5.0 incubated for 18 hrs by UPLC analysis; type: physicochemical
[12] = Solubility in 100 mM glycylglycine buffer at pH 4.0 incubated for 18 hrs by UPLC analysis; type: physicochemical
[13] = target: T2, Amylin receptor AMY3; CALCR/RAMP3; experiment: Agonist activity at human amylin receptor expressed in BHK570 cells co-expressing RAMP3 assessed as increase in intracellular cAMP concentration incubated for 3 hrs in absence of albumin by CRE luciferase reporter gene assay; type: functional, cell-based

SMILES | solubility at 18 h [1] | solubility at 18 h [2] | EC50 (Calcitonin receptor [3]) | EC50 [4] | solubility at 18 h [5] | solubility at 18 h [6] | IC50 [7] | solubility at 18 h [8] | solubility at 18 h [9] | EC50 (Calcitonin receptor [10]) | solubility at 18 h [11] | solubility at 18 h [12] | EC50 [13]
CC(C)C[C@H](NC(=O)[C@H](CCC(=O)O)NC(=O)[C@H](Cc1cnc[nH]1)NC(=O)[C@H](CC(C)C)NC(=O)[C@H](CCC(=O)O)NC(=O)[C@H](C)NC(=O)[C@H](CO)NC(=O)[C@H](CC(C)C)NC(=O)[C@H](CCCNC(=N)N)NC(=O)CNC(=O)[C@@H](NC(=O)[C@@H](NC(=O)[C@H](C)NC(=O)[C@@H](NC(=O)[C@H](CO)NC(=O)[C@@H](NC(=O)[C@H](CCC(=O)O)NC(=O)[C@H](CO)NC(=O)[C@H](C)NC(=O)CC[C@H](NC(=O)CCCCCCCCCCCCCCCCC(=O)O)C(=O)O)C(C)C)[C@@H](C)O)C(C)C)C(C)C)C(=O)N[C@@H](C)C(=O)N[C@H](C(=O)N[C@@H](CC(C)C)C(=O)N1CCC[C@H]1C(=O)N[C@@H](CCCNC(=N)N)C(=O)N[C@H](C(=O)N[C@@H](CCC(=O)O)C(=O)N[C@H](C(=O)NCC(=O)N[C@@H](CO)C(=O)NCC(=O)N[C@@H](CO)C(=O)N1CCC[C@H]1C(N)=O)[C@@H](C)O)[C@@H](C)O)[C@@H](C)O ({C18 diacid-γGlu}-ASEVSTAVVGRLSAELHELATLPRTETGSGSP-NH2) | ≥ 200 µM | ≥ 200 µM | 0.008 nM | 0.038 nM | ≥ 200 µM | ≥ 200 µM | 1.17 nM | ≥ 200 µM | ≥ 200 µM | 0.011 nM |  |  | 
CC(C)C[C@H](NC(=O)[C@H](C)NC(=O)[C@H](C)NC(=O)[C@@H](NC(=O)[C@H](CO)NC(=O)[C@H](CC(C)C)NC(=O)[C@H](CCC(=O)O)NC(=O)[C@H](CO)NC(=O)[C@H](C)NC(=O)CC[C@H](NC(=O)CCCCCCCCCCCCCCCCC(=O)O)C(=O)O)[C@@H](C)O)C(=O)NCC(=O)N[C@@H](CCCNC(=N)N)C(=O)N[C@@H](CC(C)C)C(=O)N[C@@H](CO)C(=O)N[C@@H](C)C(=O)N[C@@H](CCC(=O)O)C(=O)N[C@@H](CC(C)C)C(=O)N[C@@H](Cc1cnc[nH]1)C(=O)N[C@@H](CCC(=O)O)C(=O)N[C@@H](CC(C)C)C(=O)N[C@@H](C)C(=O)N[C@H](C(=O)N[C@@H](CC(C)C)C(=O)N1CCC[C@H]1C(=O)N[C@@H](CCCNC(=N)N)C(=O)N[C@H](C(=O)N[C@@H](CCC(=O)O)C(=O)N[C@H](C(=O)NCC(=O)N[C@@H](CO)C(=O)NCC(=O)N1CCC[C@H]1C(=O)N1CCC[C@H]1C(N)=O)[C@@H](C)O)[C@@H](C)O)[C@@H](C)O ({C18 diacid-γGlu}-ASELSTAALGRLSAELHELATLPRTETGSGPP-NH2) | ≥ 200 µM | ≥ 200 µM | 0.019 nM | 0.413 nM | ≥ 200 µM | ≥ 200 µM | 22 nM | ≥ 200 µM | ≥ 200 µM |  | ≥ 200 µM | ≥ 200 µM | 0.08 nM
CC(C)C[C@H](NC(=O)[C@H](C)NC(=O)[C@H](C)NC(=O)[C@@H](NC(=O)[C@H](CO)NC(=O)[C@H](CC(C)C)NC(=O)[C@H](CCC(=O)O)NC(=O)[C@H](CO)NC(=O)[C@H](C)NC(=O)CC[C@H](NC(=O)CCCCCCCCCCCCCCCCC(=O)O)C(=O)O)[C@@H](C)O)C(=O)NCC(=O)N[C@@H](CCCNC(=N)N)C(=O)N[C@@H](CC(C)C)C(=O)N[C@@H](CO)C(=O)N[C@@H](C)C(=O)N[C@@H](CCC(=O)O)C(=O)N[C@@H](CC(C)C)C(=O)N[C@@H](Cc1cnc[nH]1)C(=O)N[C@@H](CCC(=O)O)C(=O)N[C@@H](CC(C)C)C(=O)N[C@@H](C)C(=O)N[C@H](C(=O)N[C@@H](CC(C)C)C(=O)N1CCC[C@H]1C(=O)N[C@@H](CCCNC(=N)N)C(=O)N[C@H](C(=O)N[C@@H](CCC(=O)O)C(=O)N[C@H](C(=O)NCC(=O)N[C@@H](CO)C(=O)N[C@@H](CCC(=O)O)C(=O)N[C@@H](CO)C(=O)N1CCC[C@H]1C(N)=O)[C@@H](C)O)[C@@H](C)O)[C@@H](C)O ({C18 diacid-γGlu}-ASELSTAALGRLSAELHELATLPRTETGSESP-NH2) | ≥ 200 µM | ≥ 200 µM | 0.004 nM | 0.026 nM | ≥ 200 µM | ≥ 200 µM | 0.83 nM | ≥ 200 µM | ≥ 200 µM |  | ≥ 200 µM | ≥ 200 µM | 0.009 nM
